Measurements reported in patent publication US20240324590A1, “COMBINATIONS OF TRIAZOLINONE HERBICIDES WITH SAFENERS” (UPL CORPORATION LIMITED, priority 2021, published 2024).

Legend:
Assay type in all cases: in vivo
corn crop [1] = test: Height of corn plants after treatment, greenhouse; settings: for Crop height (cm) at 14 DAA: safener 90 g ai/ha
Protocol: (§1) The combination of flucarbazone with safeners selected from cyprosulfamid and isoxadifen were evaluated in terms of the increase or decrease in height of the treated corn crop (cm) and % phytotoxicity. The experimental evaluations were conducted under greenhouse conditions with 4 repetitions, using a spray volume of […]. The different corn varieties tested were SYN8A98 TLTG and XB 8010.
The observations for determining corn height were made at 14 DAA (days after application) of the herbicide. The treatment employed and the corresponding observations are detailed in the table 8 (i) & (ii) below: […]

redroot pigweed = test: % efficacy of weed control against redroot pigweed in corn crop; settings: for % Efficacy for control of weeds: redroot pigweed in corn crop, flucarbazone 30 g ai/ha, cyprosulfamid 66 g ai/ha
Protocol: The tank mix combination of Flucarbazone and Cyprosulfamid as the safener was formulated and the combination was sprayed onto corn crop and the results on the efficacy in weed control were determined.

corn crop [2] = test: % phytotoxicity on corn varieties, greenhouse; settings: flucarbazone 45 g ai/ha alone
Protocol: as §1
The observations for determining corn height were made at 7 DAA (days after application), 14 DAA and 21 DAA, of the herbicide. The treatment employed and the corresponding observations are detailed in the table 9 (i) & (ii) below: […]

corn crop [3] = test: % phytotoxicity in corn crop after spraying tank mix; settings: for Phytotoxicity (%) in corn crop: flucarbazone 30 g ai/ha, safener cyprosulfamid 66 / isoxadifen 38 / mefenpyr 30 g ai/ha
Protocol: Treatment: The present invention has employed a tank mix combination of Flucarbazone and Cyprosulfamid as the safener to evaluate its percentage phytotoxicity and its efficacy in the control of weeds.
The tank mix combination of Flucarbazone and Cyprosulfamid as the safener was formulated and the combination was sprayed onto corn crop and the results on the phytotoxicity in corn were determined. These observations relating to % phytotoxicity were made during a time interval of over a month. The duration at which the % phytotoxicity were determined at time intervals as follows: 3 DAA (3 days after application), 5 DAA (5 days after application), 7 DAA (7 days after application), 14 DAA (14 days after application), 21 DAA (21 days after application); 28 DAA (28 days after application); 35 DAA (35 days after application); 42DAA (42 days after application).
• (i) Treatment: The present invention has employed a tank mix of Flucarbazone and Isoxadifen as the safener to evaluate its percentage phytotoxicity in corn crop. • (ii) % Phytotoxicity: This % phytotoxicity was observed by the present inventors to be as high as 48% at 14 DAA in crops treated with Flucarbazone and Isoxadifen.
B) Flucarbazone with Mefenpyr as the Safener • (i) Treatment: The present invention has employed a tank mix combination of Flucarbazone and […] as the safener to evaluate its percentage phytotoxicity in corn crop.

**Q.** For `COc1nn(C(=O)NS(=O)(=O)c2ccccc2OC(F)(F)F)c(=O)n1C` [flucarbazone, Flucarbazone], which “Height of the corn plants” value (corn crop [1]; 14 DAA, compared with untreated corn) is on record?
**A.** reduction in height

**Q.** And the “Crop height (cm) at 14 DAA” value (corn crop [1]; corn variety SYN8A98 TLTG, flucarbazone 30 g ai/ha)?
**A.** 14 cm

**Q.** What about the “Crop height (cm) at 14 DAA” value (corn crop [1]; corn variety XB 8010, flucarbazone 30 g ai/ha) of the same molecule?
**A.** 11 cm

**Q.** And the “% Efficacy for control of weeds” value (redroot pigweed; 7 DAA)?
**A.** 22.5%

**Q.** And the “% Efficacy for control of weeds” value (redroot pigweed; 14 DAA)?
**A.** 42.5%

**Q.** What about the “% Efficacy for control of weeds” value (redroot pigweed; 21 DAA) of the same molecule?
**A.** 45%

**Q.** What about the “% Efficacy for control of weeds” value (redroot pigweed; 28 DAA) of the same molecule?
**A.** 48.8%

**Q.** And the “% Efficacy for control of weeds” value (redroot pigweed; 35 DAA)?
**A.** 48.8%

**Q.** What about the “% Efficacy for control of weeds” value (redroot pigweed; 42 DAA) of the same molecule?
**A.** 48.8%

**Q.** And the “% efficacy control of redroot pigweed” value (redroot pigweed; over a duration of one month, corn crop)?
**A.** reduced % efficacy

**Q.** What about the “% phytotoxocity of corn crop variety P4285VYHR” value (corn crop [2]; 7DAA) of the same molecule?
**A.** 26 ab %

**Q.** What about the “% phytotoxocity of corn crop variety SYN8A98 TLTG” value (corn crop [2]; 7DAA) of the same molecule?
**A.** 19 cd %

**Q.** What about the “% phytotoxocity of corn crop variety XB 8010” value (corn crop [2]; 7DAA) of the same molecule?
**A.** 28 a %

**Q.** What about the “% phytotoxocity of corn crop variety P4285VYHR” value (corn crop [2]; 14 DAA) of the same molecule?
**A.** 34 b %

**Q.** What about the “% phytotoxocity of corn crop variety SYN8A98 TLTG” value (corn crop [2]; 14 DAA) of the same molecule?
**A.** 47 ab %

**Q.** What about the “% phytotoxocity of corn crop variety XB 8010” value (corn crop [2]; 14 DAA) of the same molecule?
**A.** 52 ab %

**Q.** What about the “% phytotoxocity of corn crop variety P4285VYHR” value (corn crop [2]; 21 DAA) of the same molecule?
**A.** 32 b %

**Q.** What about the “% phytotoxocity of corn crop variety SYN8A98 TLTG” value (corn crop [2]; 21 DAA) of the same molecule?
**A.** 48 bc %

**Q.** What about the “% phytotoxocity of corn crop variety XB 8010” value (corn crop [2]; 21 DAA) of the same molecule?
**A.** 51 ab %

**Q.** And the “Phytotoxicity (%) in corn crop” value (corn crop [3]; 3DAA & 5DAA, sub-column 1 of 3 (unlabelled))?
**A.** 0%

**Q.** What about the “Phytotoxicity (%) in corn crop” value (corn crop [3]; 3DAA & 5DAA, sub-column 3 of 3 (unlabelled)) of the same molecule?
**A.** 0%

**Q.** What about the “Phytotoxicity (%) in corn crop” value (corn crop [3]; 3DAA & 5DAA) of the same molecule?
**A.** 0%

**Q.** What about the “Phytotoxicity (%) in corn crop” value (corn crop [3]; 7DAA, sub-column 1 of 3 (unlabelled)) of the same molecule?
**A.** 28.8%

**Q.** And the “Phytotoxicity (%) in corn crop” value (corn crop [3]; 7DAA, sub-column 3 of 3 (unlabelled))?
**A.** 28.8%

**Q.** And the “Phytotoxicity (%) in corn crop” value (corn crop [3]; 7DAA)?
**A.** 28.8%

**Q.** And the “Phytotoxicity (%) in corn crop” value (corn crop [3]; 14 DAA, sub-column 1 of 3 (unlabelled))?
**A.** 51.3%

**Q.** What about the “Phytotoxicity (%) in corn crop” value (corn crop [3]; 14 DAA, sub-column 3 of 3 (unlabelled)) of the same molecule?
**A.** 50%

**Q.** And the “Phytotoxicity (%) in corn crop” value (corn crop [3]; 14 DAA)?
**A.** 53.8%

**Q.** What about the “Phytotoxicity (%) in corn crop” value (corn crop [3]; 21DAA, sub-column 1 of 3 (unlabelled)) of the same molecule?
**A.** 50%

**Q.** What about the “Phytotoxicity (%) in corn crop” value (corn crop [3]; 21DAA, sub-column 3 of 3 (unlabelled)) of the same molecule?
**A.** 46.3%

**Q.** And the “Phytotoxicity (%) in corn crop” value (corn crop [3]; 21DAA)?
**A.** 51.3%

**Q.** What about the “Phytotoxicity (%) in corn crop” value (corn crop [3]; 28DAA, sub-column 1 of 3 (unlabelled)) of the same molecule?
**A.** 47.5%

**Q.** What about the “Phytotoxicity (%) in corn crop” value (corn crop [3]; 28DAA, sub-column 3 of 3 (unlabelled)) of the same molecule?
**A.** 39.8%

**Q.** And the “Phytotoxicity (%) in corn crop” value (corn crop [3]; 28DAA)?
**A.** 56.3%

**Q.** What about the “Phytotoxicity (%) in corn crop” value (corn crop [3]; 35DAA, sub-column 1 of 3 (unlabelled)) of the same molecule?
**A.** 44.9%

**Q.** And the “Phytotoxicity (%) in corn crop” value (corn crop [3]; 35DAA, sub-column 3 of 3 (unlabelled))?
**A.** 39.9%

**Q.** What about the “Phytotoxicity (%) in corn crop” value (corn crop [3]; 35DAA) of the same molecule?
**A.** 53.8%

**Q.** What about the “Phytotoxicity (%) in corn crop” value (corn crop [3]; 42DAA, sub-column 1 of 3 (unlabelled)) of the same molecule?
**A.** 42.4%

**Q.** What about the “Phytotoxicity (%) in corn crop” value (corn crop [3]; 42DAA, sub-column 3 of 3 (unlabelled)) of the same molecule?
**A.** 38.7%

**Q.** And the “Phytotoxicity (%) in corn crop” value (corn crop [3]; 42DAA)?
**A.** 48.7%

**Q.** And the “% phytotoxicity levels in corn crop” value (corn crop [3]; at 14 DAA, highest level stated in text)?
**A.** up to 50%

**Q.** What about the “% phytotoxicity in corn crop” value (corn crop [3]; over a period of one month after application) of the same molecule?
**A.** significant damage
